{
  "source": "paper PMC4710668",
  "about": "“Bioactivation of food genotoxicants 5-hydroxymethylfurfural and furfuryl alcohol by sulfotransferases from human, mouse and rat: a comparative study” (Archives of Toxicology, 2014)",
  "assay_in_all_cases": "HMF sulfoconjugation assay",
  "assay_type_in_all_cases": "biochemical",
  "key": {"hSULT2A1": {"biological_target": "T1, hSULT2A1 (Homo sapiens, UniProt Q06520)", "T1 construct": "made in house; host or cells: Salmonella typhimurium TA1538 (cytosolic fraction, not purified)", "T1 sequence (Q06520 1-285)": "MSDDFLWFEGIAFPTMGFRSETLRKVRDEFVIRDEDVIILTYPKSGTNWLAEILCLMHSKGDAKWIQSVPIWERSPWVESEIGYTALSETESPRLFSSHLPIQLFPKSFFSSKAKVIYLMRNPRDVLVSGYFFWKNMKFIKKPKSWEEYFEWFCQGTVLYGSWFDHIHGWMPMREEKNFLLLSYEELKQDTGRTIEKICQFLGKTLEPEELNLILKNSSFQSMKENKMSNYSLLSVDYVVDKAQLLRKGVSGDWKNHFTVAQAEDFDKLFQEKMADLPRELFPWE", "outline": "(§1)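 Cytosols of S. typhimurium TA1538 expressing single SULT forms (25–200 µg protein) were incubated with varied HMF, 50 µM PAPS, 5 mM MgCl2 in 50 mM potassium phosphate pH 7.4 at 37 °C for 30 min. SMF formed was quantified by UPLC-MS/MS against an external calibration line.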"}, "hSULT1B1": {"biological_target": "T2, hSULT1B1 (Homo sapiens, UniProt O43704)", "T2 construct": "made in house; host or cells: Salmonella typhimurium TA1538 (cytosolic fraction, not purified)", "T2 sequence (O43704 whole entry)": "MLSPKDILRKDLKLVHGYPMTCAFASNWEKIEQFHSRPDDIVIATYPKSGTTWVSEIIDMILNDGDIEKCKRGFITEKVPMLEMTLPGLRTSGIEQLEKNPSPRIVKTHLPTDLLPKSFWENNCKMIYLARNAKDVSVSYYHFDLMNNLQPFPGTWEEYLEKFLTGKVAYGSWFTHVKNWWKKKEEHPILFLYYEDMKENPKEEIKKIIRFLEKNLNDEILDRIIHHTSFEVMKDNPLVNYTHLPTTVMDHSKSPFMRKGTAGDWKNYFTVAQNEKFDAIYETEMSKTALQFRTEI", "outline": "as §1"}, "hSULT1C3": {"biological_target": "T3, hSULT1C3 (Homo sapiens, UniProt Q6IMI6)", "T3 construct": "made in house; host or cells: Salmonella typhimurium TA1538 (cytosolic fraction, not purified)", "T3 sequence (Q6IMI6 whole entry)": "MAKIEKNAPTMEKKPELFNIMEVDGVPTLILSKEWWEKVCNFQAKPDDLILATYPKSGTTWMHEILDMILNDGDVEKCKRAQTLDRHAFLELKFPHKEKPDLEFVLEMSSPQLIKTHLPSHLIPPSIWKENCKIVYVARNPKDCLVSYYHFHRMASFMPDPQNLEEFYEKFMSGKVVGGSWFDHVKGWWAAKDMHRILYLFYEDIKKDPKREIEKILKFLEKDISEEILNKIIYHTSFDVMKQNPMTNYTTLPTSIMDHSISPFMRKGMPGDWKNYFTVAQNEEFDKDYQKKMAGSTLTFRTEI", "outline": "as §1"}, "hSULT1A3": {"biological_target": "T4, hSULT1A3 (Homo sapiens, UniProt P0DMM9)", "T4 construct": "made in house; host or cells: Salmonella typhimurium TA1538 (cytosolic fraction, not purified)", "T4 sequence (P0DMM9 whole entry)": "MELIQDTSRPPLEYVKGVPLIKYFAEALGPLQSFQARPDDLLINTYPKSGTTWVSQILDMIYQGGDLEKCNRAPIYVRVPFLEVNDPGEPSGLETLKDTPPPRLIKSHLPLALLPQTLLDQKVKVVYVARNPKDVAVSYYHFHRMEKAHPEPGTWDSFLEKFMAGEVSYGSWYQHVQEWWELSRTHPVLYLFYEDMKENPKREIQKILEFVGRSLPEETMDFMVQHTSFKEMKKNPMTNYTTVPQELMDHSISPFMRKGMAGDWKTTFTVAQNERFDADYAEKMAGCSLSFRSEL", "outline": "as §1"}, "rSult1a1": {"biological_target": "T5, rSult1a1 (Rattus norvegicus, UniProt P17988)", "T5 construct": "made in house; host or cells: Salmonella typhimurium TA1538 (cytosolic fraction, enzyme not purified)", "T5 sequence (P17988 whole entry)": "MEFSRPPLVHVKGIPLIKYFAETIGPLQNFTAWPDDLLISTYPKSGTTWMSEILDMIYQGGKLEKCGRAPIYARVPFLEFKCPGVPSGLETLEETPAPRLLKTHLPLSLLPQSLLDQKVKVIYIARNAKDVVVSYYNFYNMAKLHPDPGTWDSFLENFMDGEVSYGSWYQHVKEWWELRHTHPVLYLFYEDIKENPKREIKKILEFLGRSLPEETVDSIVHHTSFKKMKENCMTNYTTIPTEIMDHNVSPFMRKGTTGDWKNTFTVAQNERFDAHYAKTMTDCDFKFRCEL", "outline": "as §1"}, "rSult1c1": {"biological_target": "T6, rSult1c1 (Rattus norvegicus, UniProt P50237)", "T6 construct": "made in house; host or cells: Salmonella typhimurium TA1538 (cytosolic fraction, enzyme not purified)", "T6 sequence (P50237 whole entry)": "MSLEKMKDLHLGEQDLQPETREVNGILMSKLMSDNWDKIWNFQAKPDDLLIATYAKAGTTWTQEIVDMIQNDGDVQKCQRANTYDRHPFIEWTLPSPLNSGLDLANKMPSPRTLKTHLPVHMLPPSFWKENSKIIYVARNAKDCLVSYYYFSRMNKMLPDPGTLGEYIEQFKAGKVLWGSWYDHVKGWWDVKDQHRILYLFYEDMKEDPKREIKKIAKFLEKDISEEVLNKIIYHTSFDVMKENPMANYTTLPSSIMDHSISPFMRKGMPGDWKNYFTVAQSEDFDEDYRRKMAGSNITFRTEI", "outline": "as §1"}, "mSult1d1": {"biological_target": "T7, mSult1d1 (Mus musculus, UniProt Q3UZZ6)", "T7 construct": "made in house; host or cells: Salmonella typhimurium TA1538 (cytosolic fraction, enzyme not purified)", "T7 sequence (Q3UZZ6 whole entry)": "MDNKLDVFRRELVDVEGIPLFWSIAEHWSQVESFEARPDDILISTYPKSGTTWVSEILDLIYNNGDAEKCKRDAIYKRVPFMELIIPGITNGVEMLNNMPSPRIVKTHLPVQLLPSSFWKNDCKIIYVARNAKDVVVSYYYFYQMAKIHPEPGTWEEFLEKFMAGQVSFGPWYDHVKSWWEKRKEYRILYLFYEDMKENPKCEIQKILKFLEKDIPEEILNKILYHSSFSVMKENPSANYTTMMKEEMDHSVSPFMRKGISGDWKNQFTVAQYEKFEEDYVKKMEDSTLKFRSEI", "outline": "as §1"}, "[1]": {"settings": "HMF sulfoconjugation, Michaelis-Menten fit"}},
  "data": [
    {"compound": "O=Cc1ccc(CO)o1", "note": "[HMF, 5-Hydroxymethylfurfural]", "values": [
      {"measurement": "Rate of sulfoconjugation", "setting": "hSULT2A1; 0.1 mM HMF", "result": "<0.5", "unit": "pmol/mg/min"},
      {"measurement": "Rate of sulfoconjugation", "setting": "hSULT2A1; 1 mM HMF", "result": "2.4 ± 0.6", "unit": "pmol/mg/min"},
      {"measurement": "Rate of sulfoconjugation", "setting": "hSULT2A1; 10 mM HMF", "result": "31.1 ± 5.4", "unit": "pmol/mg/min"},
      {"measurement": "Rate of sulfoconjugation", "setting": "hSULT2A1; 100 mM HMF", "result": "201 ± 39", "unit": "pmol/mg/min"},
      {"measurement": "Rate of sulfoconjugation", "setting": "hSULT1B1; 0.1 mM HMF", "result": "2.0 ± 0.5", "unit": "pmol/mg/min"},
      {"measurement": "Rate of sulfoconjugation", "setting": "hSULT1B1; 1 mM HMF", "result": "22.2 ± 5.2", "unit": "pmol/mg/min"},
      {"measurement": "Rate of sulfoconjugation", "setting": "hSULT1B1; 10 mM HMF", "result": "133 ± 28", "unit": "pmol/mg/min"},
      {"measurement": "Rate of sulfoconjugation", "setting": "hSULT1B1; 100 mM HMF", "result": "272 ± 49", "unit": "pmol/mg/min"},
      {"measurement": "K M", "setting": "hSULT1B1; [1]", "result": "13.3 ± 0.3", "unit": "mM"},
      {"measurement": "Rate of sulfoconjugation", "setting": "hSULT1C3; 0.1 mM HMF", "result": "<0.5", "unit": "pmol/mg/min"},
      {"measurement": "Rate of sulfoconjugation", "setting": "hSULT1C3; 1 mM HMF", "result": "1.0 ± 0.1", "unit": "pmol/mg/min"},
      {"measurement": "Rate of sulfoconjugation", "setting": "hSULT1C3; 10 mM HMF", "result": "7.2 ± 0.9", "unit": "pmol/mg/min"},
      {"measurement": "Rate of sulfoconjugation", "setting": "hSULT1C3; 100 mM HMF", "result": "3.6 ± 0.2", "unit": "pmol/mg/min"},
      {"measurement": "Rate of sulfoconjugation", "setting": "hSULT1A3; 0.1 mM HMF", "result": "1.2 ± 0.1", "unit": "pmol/mg/min"},
      {"measurement": "Rate of sulfoconjugation", "setting": "hSULT1A3; 1 mM HMF", "result": "12.1 ± 1.5", "unit": "pmol/mg/min"},
      {"measurement": "Rate of sulfoconjugation", "setting": "hSULT1A3; 10 mM HMF", "result": "117 ± 12", "unit": "pmol/mg/min"},
      {"measurement": "Rate of sulfoconjugation", "setting": "hSULT1A3; 100 mM HMF", "result": "406 ± 39", "unit": "pmol/mg/min"},
      {"measurement": "K M", "setting": "hSULT1A3; [1]", "result": "16.7 ± 1.8", "unit": "mM"},
      {"measurement": "Rate of sulfoconjugation", "setting": "rSult1a1; 0.1 mM HMF", "result": "<0.5", "unit": "pmol/mg/min"},
      {"measurement": "Rate of sulfoconjugation", "setting": "rSult1a1; 1 mM HMF", "result": "6.5 ± 2.1", "unit": "pmol/mg/min"},
      {"measurement": "Rate of sulfoconjugation", "setting": "rSult1a1; 10 mM HMF", "result": "43.6 ± 13.7", "unit": "pmol/mg/min"},
      {"measurement": "Rate of sulfoconjugation", "setting": "rSult1a1; 100 mM HMF", "result": "36.1 ± 16.8", "unit": "pmol/mg/min"},
      {"measurement": "K M", "setting": "rSult1a1; [1]", "result": "4.9 ± 0.7", "unit": "mM"},
      {"measurement": "Rate of sulfoconjugation", "setting": "rSult1c1; 0.1 mM HMF", "result": "2.1 ± 1.3", "unit": "pmol/mg/min"},
      {"measurement": "Rate of sulfoconjugation", "setting": "rSult1c1; 1 mM HMF", "result": "29.1 ± 9.0", "unit": "pmol/mg/min"},
      {"measurement": "Rate of sulfoconjugation", "setting": "rSult1c1; 10 mM HMF", "result": "120 ± 39", "unit": "pmol/mg/min"},
      {"measurement": "Rate of sulfoconjugation", "setting": "rSult1c1; 100 mM HMF", "result": "47.5 ± 27.3", "unit": "pmol/mg/min"},
      {"measurement": "K M", "setting": "rSult1c1; HMF sulfoconjugation, extended Michaelis-Menten equation with substrate inhibition", "result": "18.4 ± 4.7", "unit": "mM"},
      {"measurement": "Rate of sulfoconjugation", "setting": "mSult1d1; 0.1 mM HMF", "result": "124 ± 33", "unit": "pmol/mg/min"},
      {"measurement": "Rate of sulfoconjugation", "setting": "mSult1d1; 1 mM HMF", "result": "1,160 ± 260 pmol/mg/min"},
      {"measurement": "Rate of sulfoconjugation", "setting": "mSult1d1; 10 mM HMF", "result": "6,750 ± 1,190 pmol/mg/min"},
      {"measurement": "Rate of sulfoconjugation", "setting": "mSult1d1; 100 mM HMF", "result": "22,400 ± 2,400 pmol/mg/min"},
      {"measurement": "K M", "setting": "mSult1d1; [1]", "result": "31.9 ± 5.7", "unit": "mM"}
    ]}
  ]
}
